Assay results taken from article PMC6478161 (Biochemistry, 2016).
“And” between values parts separate entries of the source, which are not always exact repeats. Equal entries are not always repeated.

Legend:
WT:Nb-9065 = WT:Nb-9065 (Escherichia coli, UniProt P02920); experiment: ITC, α-NPG binding to WT LacY:Nb-9065 complex
WT:Nb-9036 = WT:Nb-9036 (Escherichia coli, UniProt P02920); experiment: ITC, α-NPG binding to WT LacY:Nb-9036 complex
Mutant:Nb-9065 = Mutant:Nb-9065 (Escherichia coli, UniProt P02920, G262W/G46W); experiment: ITC, α-NPG binding to double-Trp mutant:Nb-9065 complex
Sequence of Mutant:Nb-9065 (P02920 whole entry G46W/G262W): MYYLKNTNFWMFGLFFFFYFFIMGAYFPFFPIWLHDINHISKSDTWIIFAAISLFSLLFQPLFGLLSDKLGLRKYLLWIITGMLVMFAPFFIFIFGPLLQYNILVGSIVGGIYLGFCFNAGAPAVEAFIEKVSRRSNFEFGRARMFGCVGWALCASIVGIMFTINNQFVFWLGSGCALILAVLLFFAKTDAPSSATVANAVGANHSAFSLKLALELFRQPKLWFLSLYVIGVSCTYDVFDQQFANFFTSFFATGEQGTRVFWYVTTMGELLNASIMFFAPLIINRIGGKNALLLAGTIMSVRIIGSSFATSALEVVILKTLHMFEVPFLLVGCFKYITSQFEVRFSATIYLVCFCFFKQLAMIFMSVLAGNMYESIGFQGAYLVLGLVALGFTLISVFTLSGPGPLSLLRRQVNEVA

WT LacY [1] = target: WT LacY (Escherichia coli, UniProt P02920); experiment: ITC, sugar; type: binding
[2] = target: Double-Trp mutant (G46W/G262W LacY) (Escherichia coli, UniProt P02920, G262W/G46W); experiment: ITC, α-NPG binding to double-Trp mutant LacY; details: ITC at 25 °C; no Nb
Sequence of Double-Trp mutant (G46W/G262W LacY) (P02920 whole entry G46W/G262W): as above
Mutant:Nb-9036 = Mutant:Nb-9036 (Escherichia coli, UniProt P02920, G262W/G46W); experiment: ITC, α-NPG binding to double-Trp mutant:Nb-9036 complex
Sequence of Mutant:Nb-9036 (P02920 whole entry G46W/G262W): as above
WT LacY:Nb-9065 = target: T1, WT LacY:Nb-9065 (Escherichia coli, UniProt P02920); details: WT pre-equilibrated with Nb-9065; 10 mM melibiose
T1 sequence (P02920 whole entry, looked up): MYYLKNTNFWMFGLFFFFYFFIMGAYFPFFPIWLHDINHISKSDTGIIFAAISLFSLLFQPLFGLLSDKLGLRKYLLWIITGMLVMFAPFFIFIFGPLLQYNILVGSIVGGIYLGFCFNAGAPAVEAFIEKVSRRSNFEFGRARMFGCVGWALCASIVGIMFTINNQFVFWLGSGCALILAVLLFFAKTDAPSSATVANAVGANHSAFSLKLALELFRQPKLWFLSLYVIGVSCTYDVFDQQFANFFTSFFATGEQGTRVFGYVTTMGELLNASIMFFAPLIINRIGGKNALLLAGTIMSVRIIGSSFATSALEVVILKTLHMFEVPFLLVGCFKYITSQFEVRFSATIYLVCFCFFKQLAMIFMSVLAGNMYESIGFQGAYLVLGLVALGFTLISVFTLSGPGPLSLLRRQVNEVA

WT LacY:Nb-9036 = target: T2, WT LacY:Nb-9036 (Escherichia coli, UniProt P02920); experiment: ITC, IIA^Glc titration of WT LacY:Nb-9036 complex; type: binding; details: WT pre-equilibrated with Nb-9036; 10 mM melibiose
T2 sequence (P02920 whole entry, looked up): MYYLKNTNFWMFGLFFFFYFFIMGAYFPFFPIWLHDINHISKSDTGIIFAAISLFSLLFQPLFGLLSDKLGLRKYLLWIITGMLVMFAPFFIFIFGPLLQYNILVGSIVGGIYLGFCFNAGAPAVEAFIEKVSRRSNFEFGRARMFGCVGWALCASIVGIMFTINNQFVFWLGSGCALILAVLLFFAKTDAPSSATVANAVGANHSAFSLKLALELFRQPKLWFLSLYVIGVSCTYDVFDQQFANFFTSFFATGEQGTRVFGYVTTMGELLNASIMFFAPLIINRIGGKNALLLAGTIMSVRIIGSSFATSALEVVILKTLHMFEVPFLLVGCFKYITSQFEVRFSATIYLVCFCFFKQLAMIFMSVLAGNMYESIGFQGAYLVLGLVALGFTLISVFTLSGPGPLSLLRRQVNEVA

double-Trp mutant = details: cited from earlier work
WT LacY [3] = target: T3, WT LacY (Escherichia coli, UniProt P02920); details: cytoplasmic face of the WT; cited from earlier work
T3 sequence (P02920 whole entry, looked up): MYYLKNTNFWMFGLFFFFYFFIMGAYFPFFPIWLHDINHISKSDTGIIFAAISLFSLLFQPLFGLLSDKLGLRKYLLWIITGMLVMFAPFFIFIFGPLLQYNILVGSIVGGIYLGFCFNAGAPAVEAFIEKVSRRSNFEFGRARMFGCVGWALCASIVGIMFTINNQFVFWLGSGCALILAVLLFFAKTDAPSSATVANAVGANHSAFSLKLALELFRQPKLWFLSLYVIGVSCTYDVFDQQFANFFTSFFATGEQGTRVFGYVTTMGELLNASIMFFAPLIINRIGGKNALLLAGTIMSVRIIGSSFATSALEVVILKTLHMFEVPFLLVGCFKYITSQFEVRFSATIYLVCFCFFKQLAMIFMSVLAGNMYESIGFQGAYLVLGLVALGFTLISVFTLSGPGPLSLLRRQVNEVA

[4] = target: T4, lactose permease of Escherichia coli (LacY), wild type (Escherichia coli, UniProt P02920 1-417); experiment: ITC
T4 sequence: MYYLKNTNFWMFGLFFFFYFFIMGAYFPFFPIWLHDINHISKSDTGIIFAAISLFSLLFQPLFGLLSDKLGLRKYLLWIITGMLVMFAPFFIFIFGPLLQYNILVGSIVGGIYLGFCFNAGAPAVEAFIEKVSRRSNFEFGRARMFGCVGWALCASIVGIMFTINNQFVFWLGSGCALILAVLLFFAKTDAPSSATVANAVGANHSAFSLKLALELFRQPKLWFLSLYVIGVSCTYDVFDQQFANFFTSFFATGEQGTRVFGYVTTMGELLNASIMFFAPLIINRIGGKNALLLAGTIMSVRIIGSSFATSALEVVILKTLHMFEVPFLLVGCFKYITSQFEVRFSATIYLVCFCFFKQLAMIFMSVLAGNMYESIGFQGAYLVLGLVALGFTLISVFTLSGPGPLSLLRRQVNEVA

[5] = ITC at 25 °C, WT pre-incubated with Nb-9065
[6] = difference in the absence and presence of Nb-9065, WT
[7] = ITC at 25 °C, WT pre-incubated with Nb-9036
[8] = difference in the absence and presence of Nb-9036, WT
[9] = difference in the absence and presence of Nb-9036, WT, listed as galactoside
[10] = ITC at 25 °C, mutant pre-incubated with Nb-9065
[11] = difference in the absence and presence of Nb-9065, mutant
[12] = ITC at 25 °C, mutant pre-incubated with Nb-9036
[13] = difference in the absence and presence of Nb-9036, mutant
[14] = difference in the absence and presence of Nb-9036, mutant, listed as galactoside

Molecule: O=[N+]([O-])c1ccc(O[C@H]2O[C@H](CO)[C@H](O)[C@H](O)[C@H]2O)cc1 [α-NPG, p-nitrophenyl-α-D-galactopyranoside]
- -TΔS (WT:Nb-9065; [5]): 21.0 (1.7) kJ/mol
- Kd (WT:Nb-9065; [5]): 5700 nM
- N (stoichiometry) (WT:Nb-9065; [5]): 0.5 (0.0)
- ΔG (WT:Nb-9065; [5]): −30.0 (0.1) kJ/mol
- ΔH (WT:Nb-9065; [5]): −51.0 (1.8) kJ/mol
- fold decrease in Kd by Nb (WT:Nb-9065; Nb-9065:WT complex versus WT alone): 4 fold
- ΔΔG (WT:Nb-9065; [6]): [−4.1 ^**] kJ/mol
- ΔΔH (WT:Nb-9065; [6]): [−35.4 ^*] kJ/mol
- −TΔΔS (WT:Nb-9065; [6]): [31.3 ^*] kJ/mol
- -TΔS (WT:Nb-9036; [7]): 17.2 (0.5) kJ/mol
- Kd (WT:Nb-9036; [7]): ~300 nM and 300 nM
- N (stoichiometry) (WT:Nb-9036; [7]): 0.5 (0.1)
- ΔG (WT:Nb-9036; [7]): −37.1 (0.6) kJ/mol
- ΔH (WT:Nb-9036; [7]): −54.3 (1.1) kJ/mol
- fold decrease in Kd (increase in affinity) by Nb (WT:Nb-9036; Nb-9036:WT complex versus WT alone): ~96 fold
- ΔΔG (WT:Nb-9036; [8]): [−11.2 ^**] kJ/mol
- ΔΔH (WT:Nb-9036; [8]): [−38.7 ^**] kJ/mol
- −TΔΔS (WT:Nb-9036; [8]): [27.5 ^*] kJ/mol
- ΔΔH (WT:Nb-9036; [9]): -9.25 kcal/mol
- −TΔΔS (WT:Nb-9036; [9]): 6.57 kcal/mol
- -TΔS (Mutant:Nb-9065; [10]): 12.43 (0.9) kJ/mol
- Kd (Mutant:Nb-9065; [10]): 7100 nM
- N (stoichiometry) (Mutant:Nb-9065; [10]): 0.4 (0.0)
- ΔG (Mutant:Nb-9065; [10]): −29.4 (0.2) kJ/mol
- ΔH (Mutant:Nb-9065; [10]): −41.8 (1.05) kJ/mol
- change in Kd by Nb (Mutant:Nb-9065; Nb-9065:mutant complex versus mutant alone): no detectable change
- ΔΔG (Mutant:Nb-9065; [11]): [0.9^ns] kJ/mol
- ΔΔH (Mutant:Nb-9065; [11]): [0.3^ns] kJ/mol
- −TΔΔS (Mutant:Nb-9065; [11]): [0.6^ns] kJ/mol
- -TΔS (WT LacY [1]; ITC at 25 °C, no Nb): −10.3 (3.6) kJ/mol
- Kd (WT LacY [1]; ITC at 25 °C, no Nb): 28800 nM
- N (stoichiometry) (WT LacY [1]; ITC at 25 °C, no Nb): 0.6 (0.1)
- ΔG (WT LacY [1]; ITC at 25 °C, no Nb): −25.9 (0.2) kJ/mol
- ΔH (WT LacY [1]; ITC at 25 °C, no Nb): −15.6 (3.4) kJ/mol
- -TΔS [2]: 11.8 (0.3) kJ/mol
- Kd [2]: 5000 nM
- N (stoichiometry) [2]: 0.5 (0.0)
- ΔG [2]: −30.3 (0.3) kJ/mol
- ΔH [2]: −42.1 (0.0) kJ/mol
- -TΔS (Mutant:Nb-9036; [12]): 34.2 (2.9) kJ/mol
- Kd (Mutant:Nb-9036; [12]): ~300 nM and 300 nM
- N (stoichiometry) (Mutant:Nb-9036; [12]): 0.6 (0.0)
- ΔG (Mutant:Nb-9036; [12]): −37.5 (0.4) kJ/mol
- ΔH (Mutant:Nb-9036; [12]): −71.7 (2.5) kJ/mol
- fold decrease in Kd (increase in affinity) by Nb (Mutant:Nb-9036; Nb-9036:mutant complex versus mutant alone): ~19 fold
- ΔΔG (Mutant:Nb-9036; [13]): [−7.2 ^**] kJ/mol
- ΔΔH (Mutant:Nb-9036; [13]): [−29.6 ^**] kJ/mol
- −TΔΔS (Mutant:Nb-9036; [13]): [22.4 ^*] kJ/mol
- ΔΔH (Mutant:Nb-9036; [14]): -7.07 kcal/mol
- −TΔΔS (Mutant:Nb-9036; [14]): 5.35 kcal/mol

Molecule: O=[N+]([O-])c1ccc(O[C@H]2O[C@H](CO)[C@@H](O)[C@H](O)[C@H]2O)cc1 [nitrophenyl-α-D-glucopyranoside]
- titration thermogram (control) (WT LacY [1]; ITC, 1 mM injected into WT LacY): small, relatively flat thermogram

Molecule: IIA^Glc: a phosphotransferase protein of the glucose-specific phosphoenolpyruvate:carbohydrate phosphotransferase system (E. coli, unphosphorylated)
- IIA^Glc binding (thermogram) (WT LacY:Nb-9065): no IIA^Glc binding
- IIA^Glc binding (thermogram) (WT LacY:Nb-9036): no IIA^Glc binding
- IIA^Glc binding (double-Trp mutant): does not bind
- heat of IIA^Glc binding (WT LacY [3]): endothermic

B1: IIA^Glc, phosphotransferase protein of the glucose-specific phosphoenolpyruvate:carbohydrate phosphotransferase system (natural protein, E. coli, UniProt P69783 1-169, looked up)
chain: MGLFDKLKSLVSDDKKDTGTIEIIAPLSGEIVNIEDVPDVVFAEKIVGDGIAIKPTGNKMVAPVDGTIGKIFETNHAFSIESDSGVELFVHFGIDTVELKGEGFKRIAEEGQRVKVGDTVIEFDLPLLEEKAKSTLTPVVISNMDEIKELIKLSGSVTVGETPVIRIKK
- binding result [4]: binds
